Laboratory results taken from PubChem BioAssay AID2060350 (Molecular Pharmacology Branch, DTP, NCI, 2025).
“And” between values parts separate entries of the source, which are not always exact repeats. Equal values may be shown once.

System: PDC 521955-158-R6-J3 spheroids, viability
Assay: Anticancer human tumor 521955-158-R6-J3-PDC patient-derived pancreatic carcinoma cell line growth inhibition [TAK]
Details: spheroids with HUVEC and MSC; for viability, T/C: stronger effect = lower value
Source text: Combinatorial screen of targeted agents with TAK-243 and ipatasertib in multi-cell type tumor spheroids
A high-throughput screen of multi-cell type tumor spheroids was designed to identify active combinations of targeted small molecules and TAK-243 or ipatasertib. Complex spheroids include a stromal component modeled by human endothelial cells (HUVEC) and fibroblasts modeled by human mesenchymal stem cells (MSCs). The concentration ranges selected for each drug and investigational agent were based upon clinically achievable concentrations if the clinical Cmax of the agent was known.
Compounds. The drugs and investigational agents: TAK-243 (785004), ipatasertib (767898), everolimus (733504), selumetinib (741078), bortezomib (756655), trametinib (758246), ixazomib (758254), vemurafenib (761431), dabrafenib (764134), sapanisertib (764658), alpelisib (765974), and copanlisib (816437), were obtained from the National Cancer Institute (NCI) Developmental Therapeutics Program Chemical Repository. The FDA-approved anticancer drug set is available from the NCI Developmental Therapeutics Program. […] The stock solutions were prepared in dimethyl sulfoxide (DMSO, Sigma-Aldrich, St. Louis, MO, cat. D2650) at 800-fold the tested concentration and stored at -70 degrees C prior to their use. All drugs and investigational agents were tested over a range starting from a high concentration at or near the clinical Cmax and decreasing in half-log increments. If the clinical Cmax for an agent had not been determined, the highest concentration tested was 10 microM.
NCI60 Cell Culture. NCI60 cell lines were obtained from the NCI Developmental Therapeutics Program Tumor Repository. For each lot of cells, the Repository performed Applied Biosystems AmpFLSTR Identifiler testing with PCR amplification to confirm consistency with the published Identifier STR profile for each cell line. Cells were kept in continuous culture for no more than 20 passages. The optimal seeding densities for each of the cell lines at each time point assessed were determined prior to performing the concentration response studies. Briefly, the NCI60 human tumor lines were grown as monolayers in RPMI 1640 medium supplemented with 10% FBS and 2 mmol/L L-glutamine.
An additional 2 lines were from the NCI60 cell line panel including melanomas, MALME-3M and SK-MEL-2. Pooled donor human umbilical vein endothelial cells (HUVEC, Lonza, cat. CC-2519) and human mesenchymal stem cells (hMSC, Lonza, cat. PT-2501) were purchased from Lonza (Walkersville, MD).
PDMR cell lines were grown in complete medium (DC medium): Dulbecco's modified Eagle's medium (DMEM)/F12 supplemented with 5% fetal bovine serum (FBS), 2 mM L-glutamine, 100 U/mL penicillin and 100 µg/ml streptomycin, 0.4 µg/ml hydrocortisone, 10 ng/ml epidermal growth factor (EGF) recombinant human protein, 24 µg/mL adenine, and 0.1 mg/mL primocin. During culture from frozen stock vials, PDMR cells were cultured in the same medium containing 10 µM Y-27632 (see Table 3). The PDCs were cultured in complete DMEM/F12 media without 10 microM Y-27632 dihydrochloride for at least two passages prior to the screen. The pooled donor HUVEC and hMSC were cultured in endothelial cell growth medium 2 (PromoCell, Heidelberg, Germany, cat. C-22011) and mesenchymal stem cell growth medium 2 (PromoCell, cat. C-28009), respectively. For all experiments, HUVEC and hMSC were used at passages </=5.
For the pre-screen, cell seeding densities were determined from a titration spanning the range from 5,000 to 313 cells per well. The mct-spheroids including 60% malignant cells, 25% HUVEC and 15% MSC dispensed as a mixture into U-bottom Ultra-Low Attachment 384-well plates (Corning, NY)
High-throughput Drug Combination Screening.
Prior to their inoculation into 384-well plates, malignant cells, HUVEC, and hMSC were removed from T flasks using TrypLE express (Thermo Fisher Scientific, cat. 12605036) and harvested by centrifugation for 5 min at 233 x g. […]

[1] = curve of first compound, second compound 0.3 µM
[2] = curve of first compound, second compound 0.949 µM
[3] = curve of first compound, second compound 3 µM
[4] = curve of first compound, second compound 9.49 µM
[5] = curve of first compound, second compound 30 µM
[6] = second compound 0.3 µM, first compound 0.0316 µM
[7] = second compound 0.3 µM, first compound 0.1 µM
[8] = second compound 0.3 µM, first compound 0.316 µM
[9] = second compound 0.3 µM, first compound 1 µM
[10] = second compound 0.949 µM, first compound 0.0316 µM
[11] = second compound 0.949 µM, first compound 0.1 µM
[12] = second compound 0.949 µM, first compound 0.316 µM
[13] = second compound 0.949 µM, first compound 1 µM
[14] = second compound 3 µM, first compound 0.0316 µM
[15] = second compound 3 µM, first compound 0.1 µM
[16] = second compound 3 µM, first compound 0.316 µM
[17] = second compound 3 µM, first compound 1 µM
[18] = second compound 9.49 µM, first compound 0.0316 µM
[19] = second compound 9.49 µM, first compound 0.1 µM
[20] = second compound 9.49 µM, first compound 0.316 µM
[21] = second compound 9.49 µM, first compound 1 µM
[22] = second compound 30 µM, first compound 0.0316 µM
[23] = second compound 30 µM, first compound 0.1 µM
[24] = second compound 30 µM, first compound 0.316 µM
[25] = second compound 30 µM, first compound 1 µM
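Also: spheroids exposed to drugs for 7 days before readout.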
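For viability, T/C in this document: 100% = DMSO vehicle control viability.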

COc1c(OCCCN2CCOCC2)ccc2c3n(c(=NC(=O)c4cnc(N)nc4)nc12)CCN3 + CC(C)NCC(C(=O)N1CCN(c2ncnc3c2C(C)CC3O)CC1)c1ccc(Cl)cc1 was tested, and the IC50 [1] was 38.4 nM, the IC50 [2] was 7.43 nM and the IC50 [3] was less than 3.16 nM. The IC50 [4] was less than 3.16 nM, the IC50 [5] was less than 3.16 nM and the viability, T/C (second compound 0.3 µM, first compound 0.00316 µM) was 70.9%. For the same molecule, the viability, T/C (second compound 0.3 µM, first compound 0.01 µM) was 63.6%, the viability, T/C [6] was 51.2% and the viability, T/C [7] was 41%. For the same molecule, the viability, T/C [8] was 27%, the viability, T/C [9] was 21.6% and the viability, T/C (second compound 0.949 µM, first compound 0.00316 µM) was 52.4%. For the same molecule, the viability, T/C (second compound 0.949 µM, first compound 0.01 µM) was 48.2%, the viability, T/C [10] was 44.9% and the viability, T/C [11] was 37.4%. For the same molecule, the viability, T/C [12] was 25.9%, the viability, T/C [13] was 20.2% and the viability, T/C (second compound 3 µM, first compound 0.00316 µM) was 46.8%. It also gave a viability, T/C (second compound 3 µM, first compound 0.01 µM) of 43.5%, a viability, T/C [14] of 37.8% and a viability, T/C [15] of 32.9%. It also gave a viability, T/C [16] of 25.7%, a viability, T/C [17] of 19.5% and a viability, T/C (second compound 9.49 µM, first compound 0.00316 µM) of 43.3%. For the same molecule, the viability, T/C (second compound 9.49 µM, first compound 0.01 µM) was 37.5%, the viability, T/C [18] was 35.8% and the viability, T/C [19] was 29.9%. The viability, T/C [20] was 22.8%, the viability, T/C [21] was 19.8% and the viability, T/C (second compound 30 µM, first compound 0.00316 µM) was 41.1%. It also gave a viability, T/C (second compound 30 µM, first compound 0.01 µM) of 34.5%, a viability, T/C [22] of 37% and a viability, T/C [23] of 24.6%. For the same molecule, the viability, T/C [24] was 18% and the viability, T/C [25] was 15.4%.
Cc1nc(NC(=O)N2CCCC2C(N)=O)sc1-c1ccnc(C(C)(C)C(F)(F)F)c1 (configuration not stated) + CC(C)NCC(C(=O)N1CCN(c2ncnc3c2C(C)CC3O)CC1)c1ccc(Cl)cc1 gave an IC50 [1] greater than 10000 nM, an IC50 [2] of 4490 nM and an IC50 [3] of 2820 nM. The IC50 [4] was 509 nM, the IC50 [5] was 481 nM and the viability, T/C [6] was 70.5%. The viability, T/C [7] was 77%, the viability, T/C [8] was 72.7% and the viability, T/C [9] was 63.1%. The viability, T/C (second compound 0.3 µM, first compound 3.16 µM) was 66.4%, the viability, T/C (second compound 0.3 µM, first compound 10 µM) was 55.6% and the viability, T/C [10] was 63.4%. For the same molecule, the viability, T/C [11] was 64%, the viability, T/C [12] was 57.3% and the viability, T/C [13] was 55.3%. It also gave a viability, T/C (second compound 0.949 µM, first compound 3.16 µM) of 54.3%, a viability, T/C (second compound 0.949 µM, first compound 10 µM) of 44.9% and a viability, T/C [14] of 57.2%. The viability, T/C [15] was 62.7%, the viability, T/C [16] was 58.8% and the viability, T/C [17] was 51.5%. For the same molecule, the viability, T/C (second compound 3 µM, first compound 3.16 µM) was 51.2%, the viability, T/C (second compound 3 µM, first compound 10 µM) was 38.9% and the viability, T/C [18] was 63%. For the same molecule, the viability, T/C [19] was 58.4%, the viability, T/C [20] was 48.2% and the viability, T/C [21] was 47.2%. The viability, T/C (second compound 9.49 µM, first compound 3.16 µM) was 46.9%, the viability, T/C (second compound 9.49 µM, first compound 10 µM) was 35.1% and the viability, T/C [22] was 60%. The viability, T/C [23] was 49.2%, the viability, T/C [24] was 54.5% and the viability, T/C [25] was 46.8%. For the same molecule, the viability, T/C (second compound 30 µM, first compound 3.16 µM) was 38.9% and the viability, T/C (second compound 30 µM, first compound 10 µM) was 26.2%.
CC(C)CC(NC(=O)CNC(=O)c1cc(Cl)ccc1Cl)B1OC(=O)CC(CC(=O)O)(C(=O)O)O1 (configuration not stated) was tested, and the viability, T/C (compound 0.000316 µM) was 105% and 101%, the viability, T/C (compound 0.001 µM) was 101% and 102% and the viability, T/C (compound 0.00316 µM) was 110% and 100%. For the same molecule, the viability, T/C (compound 0.01 µM) was 114% and 107%, the viability, T/C (compound 0.0316 µM) was 75.9% and 69.7% and the viability, T/C (compound 0.1 µM) was 10.2% and 9.97%. The IC50 (curve of compound) was 49.8 nM and 46.2 nM.
